Measured values reported in paper PMC3404749 (Molecular Pharmaceutics, 2012).

Key:
expressed human SULT1A3 [1] = molecular target: T1, expressed human SULT1A3 (Homo sapiens, UniProt P0DMM9); test: Sulfonation activities of flavonoids in expressed human SULT1A3; type: in vitro ADME; conditions: for sulfate detection when SULT1A3 was used: expressed SULT1A3, LC-MS/MS and UPLC; for sulfonation rate: pH 7.4, 37°C, n=3
expressed human SULT1A3 [2] = molecular target: T1, expressed human SULT1A3; test: Kinetics of flavonoid sulfonation by SULT1A3; conditions: for Km1: SULT1A3, 0.039–20 µM substrate; for Kinetic model: SULT1A3, best-fit model by Eadie-Hofstee plot and AIC; for Ksi (substrate inhibition constant): SULT1A3, substrate inhibition model
SULT1A3 = SULT1A3 (Homo sapiens, UniProt P0DMM9); test: Kinetics of flavonoid sulfonation by SULT1A3; conditions: human
[3] = expressed SULT1A3, substrate concentration 2.5 µM
[4] = expressed SULT1A3, substrate concentration 10 µM

T1 sequence (P0DMM9 whole entry): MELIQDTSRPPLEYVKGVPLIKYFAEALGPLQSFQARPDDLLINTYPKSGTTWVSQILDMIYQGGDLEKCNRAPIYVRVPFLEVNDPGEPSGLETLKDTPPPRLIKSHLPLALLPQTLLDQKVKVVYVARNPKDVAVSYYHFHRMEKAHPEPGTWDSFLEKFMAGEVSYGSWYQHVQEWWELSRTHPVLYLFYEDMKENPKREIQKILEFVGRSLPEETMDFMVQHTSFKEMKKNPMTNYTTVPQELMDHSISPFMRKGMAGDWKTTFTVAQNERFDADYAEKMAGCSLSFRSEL
Chain of SULT1A3 (P0DMM9 whole entry): as above

| sulfate detection when SULT1A3 was used (expressed human SULT1A3 [1]) | sulfonation rate (expressed human SULT1A3 [1]; [3]) | sulfonation rate (expressed human SULT1A3 [1]; [4]) | Structure (SMILES) | other results |
| --- | --- | --- | --- | --- |
| not detected | 0 nmol/hr/mg protein | 0 nmol/hr/mg protein | O=c1c(-c2ccc(O)cc2)coc2cc(O)cc(O)c12 [genistein, Genistein] |  |
|  | 0 nmol/hr/mg protein | 0 nmol/hr/mg protein | O=C(CCc1ccc(O)cc1)c1c(O)cc(O)cc1O [phloretin, Phloretin] |  |
|  | 3.78 ± 0.79 nmol/hr/mg protein | 5.77 ± 0.22 nmol/hr/mg protein | O=c1c(O)c(-c2ccc(O)cc2)oc2cc(O)cc(O)c12 [kaempferol, 3,5,7,4’tetrahydroxyflavone] |  |
| not detected | 0 nmol/hr/mg protein |  | O=c1cc(-c2ccc(O)cc2)oc2ccccc12 [4’HF, 4'-Hydroxyflavone] |  |
| not detected | 0 nmol/hr/mg protein | 0 nmol/hr/mg protein | O=c1c(O)c(-c2ccccc2)oc2ccccc12 [3HF, 3-Hydroxyflavone] |  |
|  | 6.80 ± 1.28 nmol/hr/mg protein | 11.79 ± 0.33 nmol/hr/mg protein | O=c1c(O)c(-c2ccc(O)cc2)oc2cc(O)ccc12 [3,7,4'THF, 3,7,4'-Trihydroxyflavone] |  |
|  | 3.21 ± 0.36 nmol/hr/mg protein | 12.03 ± 0.94 nmol/hr/mg protein | O=C1C[C@@H](c2ccc(O)cc2)Oc2cc(O)cc(O)c21 [naringenin, Naringenin] |  |
|  | 45.84 ± 1.53 nmol/hr/mg protein | 74.69 ± 1.05 nmol/hr/mg protein | O=c1c(O)c(-c2ccccc2)oc2cc(O)ccc12 [3,7DHF, 3,7-Dihydroxyflavone] | Vmax-1/ Km1 (expressed human SULT1A3 [2]; SULT1A3): 43000 µL/min/mg; Km1 (expressed human SULT1A3 [2]): 1.85 µM; Kinetic model (expressed human SULT1A3 [2]): Sigmoidal kinetics of Hill equation |
|  | 13.88 ± 1.21 nmol/hr/mg protein | 24.98 ± 0.49 nmol/hr/mg protein | O=c1c(O)c(-c2ccccc2)oc2cc(O)cc(O)c12 [3,5,7THF, 3,5,7-Trihydroxyflavone] |  |
| not detected | 0 nmol/hr/mg protein | 0 nmol/hr/mg protein | O=c1c(O)c(-c2ccc(O)cc2)oc2ccccc12 [3,4’DHF, 3,4'-Dihydroxyflavone] |  |
|  | 7.54 ± 0.34 nmol/hr/mg protein | 10.30 ± 1.64 nmol/hr/mg protein | O=c1cc(-c2ccc(O)cc2)oc2cc(O)ccc12 [7,4’DHF, 7,4'-Dihydroxyflavone] | Km1 (expressed human SULT1A3 [2]): 3.42 µM; Kinetic model (expressed human SULT1A3 [2]): Substrate inhibition; Ksi (substrate inhibition constant) (expressed human SULT1A3 [2]): 13.81 |

| Structure (SMILES) | sulfate detection when SULT1A3 was used (expressed human SULT1A3 [1]) | sulfonation rate (expressed human SULT1A3 [1]; [3]) | sulfonation rate (expressed human SULT1A3 [1]; [4]) | other results |
| --- | --- | --- | --- | --- |
| O=c1cc(-c2ccccc2)oc2cc(O)cc(O)c12 [5,7DHF, 5,7-Dihydroxyflavone] |  | 62.30 ± 2.54 nmol/hr/mg protein | 85.37 ± 1.53 nmol/hr/mg protein | Km1 (expressed human SULT1A3 [2]): 2.73 µM; Kinetic model (expressed human SULT1A3 [2]): Biphasic kinetics; Vmax-2 (biphasic) (expressed human SULT1A3 [2]; SULT1A3, biphasic kinetics): 17.38 nmol/min/mg; Km2 (expressed human SULT1A3 [2]; SULT1A3, biphasic kinetics, low-affinity phase): 1e-06 mM |
| O=c1cc(-c2ccccc2)oc2cccc(O)c12 [5HF, 5-Hydroxyflavone] | not detected | 0 nmol/hr/mg protein |  |  |
| O=c1cc(-c2ccccc2)oc2cc(O)ccc12 [7HF, 7-Hydroxyflavone] |  | 35.66 ± 4.72 nmol/hr/mg protein | 48.92 ± 5.18 nmol/hr/mg protein | microsomal CLint (SULT1A3): 30400 µL/min/mg; Km1 (expressed human SULT1A3 [2]): 2.80 µM; Kinetic model (expressed human SULT1A3 [2]): substrate inhibition kinetics; Ksi (substrate inhibition constant) (expressed human SULT1A3 [2]): 23.12 |
| O=c1cc(-c2ccc(O)cc2)oc2cc(O)cc(O)c12 [apigenin, 5,7,4'-Trihydroxyflavone] |  | 19.00 ± 1.58 nmol/hr/mg protein | 19.36 ± 0.41 nmol/hr/mg protein | sulfonation rate (expressed human SULT1A3 [1]; expressed SULT1A3, substrate concentration 2.5 µM, listed as 5,7,4'THF): 19.00±1.58 nmol/hr/mg protein |
